Entries after “also recorded” stand apart in the source; their conditions may differ.
Tests used:
[1] = system: CD3/CD28-stimulated human T lymphocytes; experiment: In vitro T-cell activation assay (interleukin-2 secretion, ELISA); type: cell-based; conditions: human T-cells activated with CD3/CD28 antibodies, 0.1 and 1.0 nM compound, 16 to 20 hr; for in vitro immunosuppressive activity (interleukin-2 secreted from activated T-cells) as compared with the control group: control = activated cells without compound
Experimental: After removal of cell debris by routine centrifugation, the supernatant was subjected to ELISA (R&D Systems) to quantify the level of interleukin-2 secreted from activated T-cells. The level of interleukin-2 obtained from T cells activated with CD3/CD28 without further treatment with the above compounds was used as a control (FIG. 7).
(§1) For statistical comparisons of group differences, especially for both the T cell activation and neurite outgrowth assays, quantitative data were analyzed by one-way analysis of variance (ANOVA) followed by Fisher's t-test according to the statistical program SigmaStat® (Jandel Scientific; version 3.1).

[2] = system: human neuroblastoma SH-SY5Y cells; experiment: In vitro neurite outgrowth assay using human neuroblastoma cells; type: cell-based; conditions: for neurite processes compared with cells treated with NGF alone (micrographs, FIG. 8) / neurite outgrowth activity: SH-SY5Y; for neurite processes compared with cells treated with NGF alone (micrographs, FIG. 8): NGF plus 1 nM compound, after 96 h of cultivation; for neurite outgrowth activity: NGF
Experimental: The relative nerve regeneration activities of the mutasynthetic analogues, 36-methyl-FK506 and 36-fluoro-FK520, compared with authentic K506 and FK520, were determined using human neuroblastoma cells. […] The cells (n=90) were randomly photographed after 96 hr of cultivation, then the number of cells with outgrowth was counted. The neurite lengths were measured on photographic prints. Duplicate wells were run in all experiments, and the entire experiment was replicated three times. Neurite length estimated from samples treated with NGF alone was used as a control (FIGS. 7 and 8).
as §1

CO[C@H]1C[C@@H](C)C/C(C)=C/[C@@H](CCF)C(=O)C[C@H](O)[C@@H](C)[C@@H](/C(C)=C/[C@@H]2CC[C@@H](O)[C@H](OC)C2)OC(=O)[C@@H]2CCCCN2C(=O)C(=O)[C@]2(O)O[C@H]1[C@@H](OC)C[C@H]2C [36-fluoro-FK520]
in vitro immunosuppressive activity (interleukin-2 secreted from activated T-cells) as compared with the control group [1]: have the immunosuppressive activity | neurite processes compared with cells treated with NGF alone (micrographs, FIG. 8) [2]: longer | neurite outgrowth activity ([2]; 1 nM compound): strong neurite outgrowth activity

C=C(C)C[C@@H]1/C=C(\C)C[C@H](C)C[C@H](OC)[C@H]2O[C@@](O)(C(=O)C(=O)N3CCCC[C@H]3C(=O)O[C@H](/C(C)=C/[C@@H]3CC[C@@H](O)[C@H](OC)C3)[C@H](C)[C@@H](O)CC1=O)[C@H](C)C[C@@H]2OC [36-methyl-FK506]
in vitro immunosuppressive activity (interleukin-2 secretion) against FK506 and FK520 [1]: not improved | in vitro immunosuppressive activity (interleukin-2 secreted from activated T-cells) as compared with the control group [1]: significant immunosuppressive activity; also recorded: have the immunosuppressive activity | greater effect on neurite outgrowth compared with FK506 ([2]; SH-SY5Y treated with nerve growth factor (10 ng/ml), 1 nM compound, 96 hr): ~20% | neurite processes compared with cells treated with NGF alone (micrographs, FIG. 8) [2]: longer | neurite outgrowth activity ([2]; 1 nM compound): strong neurite outgrowth activity

C=CC[C@@H]1/C=C(\C)C[C@H](C)C[C@H](OC)[C@H]2O[C@@](O)(C(=O)C(=O)N3CCCC[C@H]3C(=O)O[C@H](/C(C)=C/[C@@H]3CC[C@@H](O)[C@H](OC)C3)[C@H](C)[C@@H](O)CC1=O)[C@H](C)C[C@@H]2OC [FK506, tacrolimus, reference compound]
neurite processes compared with cells treated with NGF alone (micrographs, FIG. 8) [2]: longer

CC[C@@H]1/C=C(\C)C[C@H](C)C[C@H](OC)[C@H]2O[C@@](O)(C(=O)C(=O)N3CCCC[C@H]3C(=O)O[C@H](/C(C)=C/[C@@H]3CC[C@@H](O)[C@H](OC)C3)[C@H](C)[C@@H](O)CC1=O)[C@H](C)C[C@@H]2OC [FK520, ascomycin, reference compound]
neurite processes compared with cells treated with NGF alone (micrographs, FIG. 8) [2]: exception
